# Data taken from patent EP2660245A1, “PHYSIOLOGICALLY ACTIVE BIS-DIALKYLAMIDES OF PHOSPHORYL-SUBSTITUTED 1,4-DICARBOXYLIC ACIDS AND METHOD FOR PRODUCING SAME” (Federalnoe Gosudarstvennoe Bydzhetnoe Uchrezhdenie Nauki …, priority 2010, dated 2012).
# What was measured:
# [1] = tested on: rat cortical synaptosomes; assay: glutamate-induced 45Ca2+ uptake into rat cortical synaptosomes (P2-fraction); type: cell-based; details: for activity at 100 µM / IC50: Rattus norvegicus, glutamate-stimulated; for activity at 100 µM / ^45Ca^2+ uptake (% vs. control): 5 min; for activity at 100 µM: compound at 100 µM, synaptosomes of newborn Wistar rats, 5 minutes at 37°C, control = 100%, read-out: ^45Ca^2+ uptake (% vs. control); for IC50: concentration at which 50% inhibition of calcium uptake takes place, four different concentrations; for ^45Ca^2+ uptake (% vs. control): 100 µM
# Source text: Neuroprotective action of the synthesized compounds was studied in P2-fraction of the rat brain cortex synaptosomes as an in vitro convenient model for evaluation of the ability of various compounds to influence calcium uptake into the nerve endings. In the present invention, the applicant used the method of detecting the uptake of ^45Ca^2+ into rat cortical synaptosomes when stimulated with glutamic acid.
# Synaptosomes were obtained from the cerebral cortex of newborn Wistar rats (9-10 days) according to Hayosh's standard procedure [Hajos F.// Brain Res., 1975, Vol.93, No 3, pp. 485-489]. The brain was homogenized (glass-teflon) in 10 volumes of 0.32 M chilled sucrose (900 rpm). The homogenate was centrifuged for 10 minutes at 1500 g. The resulting supernatant was centrifuged for 20 minutes at 10000 g. To accumulate the radioactive label, the P2-synaptosomal fraction was suspended in incubation buffer A (132 mM NaCl, 5 mM KCl, 5 mM HEPES, 10 mM glucose, pH 7.4 (protein concentration of 1.5-2 mg/ml)). The final concentration of Ca^2+ was 1.25 mM (1.4 µCi/ml). […] glutamate was used to stimulate the uptake of ^45Ca^2+ in synaptosomes. After 5 minutes of the incubation with glutamate at 37°C, the uptake of ^45Ca^2+ was stopped by filtration through GF/B filters (Whatman, England), washing three times with cold buffer B (145 mM KCl, 10 mM Tris, 5.4 mM Trilon B, pH 7.4) [L.N. Petrova, S.O. Bachurin // Bull. Exp. Biol. Med., 2006., Vol. 142, No 7, pp.51-54]. The samples were analyzed by liquid scintillation beta analyzer (Russia). All tests were performed in three parallel replications in 2-3 independent experiments. The amount of ^45Ca^2+ uptaced into synaptosomes was determined by the difference in the content of the label in the glutamate-induced uptake into synaptosomes and uptake into synaptosomes without agonist, and expressed as percentages of the control (control = 100%).
# Specific uptake of ^45Ca^2+ was calculated according to the following formula: K(43/21) = [(Ca4-Ca3)/(Ca2-Ca1)]⋅100%, [formula] wherein Ca1 is uptake of ^45Ca^2+ in the control (without glutamate and a test compound), Ca2 is uptake of ^45Ca^2+ in the presence of glutamate, Ca3 is uptake of ^45Ca^2+ in the presence of a test compound (without glutamate), Ca4 is uptake of ^45Ca^2+ in the presence of glutamate and a test compound. Statistical analysis was performed according to Student's test.
# Testing of the compounds was performed at a concentration of 100 µM. Compounds 1-9 which have an inhibitory effect on the ^45Ca^2+ uptake into rat cortical synaptosomes were examined in detail at four different concentrations to determine the IC50 value (concentration of a compound at which 50% inhibition of calcium uptake takes place).
# [2] = acute toxicity (LD50) according to the standard method; details: in vivo
SMILES,activity at 100 µM [1] [%],IC50 [1] [µM],LD50 [2] [mg/kg],^45Ca^2+ uptake (% vs. control) [1] [%]
"CCCCN(CCCC)C(=O)CC(CP(=O)(c1cc(C)ccc1C)c1cc(C)ccc1C)C(=O)N(CCCC)CCCC (centres unmarked) [Compound 9, N^1,N^1,N^4,N^4-tetrabutyldiamide of 2-[bis(2,5-dimethylphenyl)-phosphinoylmethyl]succinic acid]",4.9 ± 4.9,5.1,> 100,–
"CCCCN(CCCC)C(=O)CC(CP(=O)(c1ccc(OC)cc1)c1ccc(OC)cc1)C(=O)N(CCCC)CCCC (centres unmarked) [Compound 8, N^1,N^1,N^4,N^4-tetrabutyldiamide of 2-[bis(4-methoxyphenyl)-phosphinoylmethyl]succinic acid]",–,15.5,> 100,0
"CCCCN(CCCC)C(=O)CC(C(=O)N(CCCC)CCCC)P(=O)(c1ccc(OC)cc1)c1ccc(OC)cc1 (centres unmarked) [Compound 6, N^1,N^1,N^4,N^4-tetrabutyldiamide of 2-[bis(4-methoxyphenyl)-phosphinoyl]succinic acid]",7.2 ± 1.3,17,> 100,–
"CCN(CC)C(=O)CC(CP(=O)(c1ccccc1)c1ccccc1)C(=O)N(CC)CC (centres unmarked) [Compound 10, N^1,N^1,N^4,N^4-tetraethyldiamide of 2-(diphenylphosphinoylmetyl)succinic acid]",63.8 ± 12,–,> 100,–
"CCP(=O)(CC)C(CC(=O)O)C(=O)O (centres unmarked) [Compound 13, 2-(Diethylphosphinoyl)succinic acid, reference compound]",120 ± 17.3,–,–,–
"CCCCN(CCCC)C(=O)CC(C(=O)N(CCCC)CCCC)P(=O)(c1ccc(Cl)cc1)c1ccc(Cl)cc1 (centres unmarked) [Compound 5, N^1,N^1,N^4,N^4-tetrabutyldiamide of 2-[bis(4-chlorophenyl)-phosphinoyl]succinic acid]",11.7 ± 7,4.8,> 100,–
"CCCCN(CCCC)C(=O)CP(=O)(c1ccccc1)c1ccccc1 [Compound 16, N,N-Dibutylamide of 2-(diphenylphosphinoyl)acetic acid, reference compound]",96.2 ± 2.9,–,–,–
CCCCN(CCCC)C(=O)CC(C(=O)N(CCCC)CCCC)P(=O)(c1ccccc1C)c1ccccc1C (centres unmarked) [Compound 2],–,9.3,> 100,6.6±3.3
"CCN(CC)C(=O)CP(=O)(c1ccccc1)c1ccccc1 [Compound 17, N,N-Diethylamide of 2-(diphenylphosphinoyl)acetic acid, reference compound]",95.4,–,–,–
"CCCCN(CCCC)C(=O)CC(C(=O)N(CCCC)CCCC)P(=O)(c1ccccc1)c1ccccc1 (centres unmarked) [Compound 1, N^1,N^1,N^4,N^4-tetrabutyldiamide of 2-(diphenylphosphinoyl)succinic acid]",–,14.1,> 100,0
"CCCCN(CCCC)C(=O)CC(C(=O)N(CCCC)CCCC)P(=O)(c1cc(C)ccc1C)c1cc(C)ccc1C (centres unmarked) [Compound 3, N^1,N^1,N^4,N^4-tetrabutyldiamide of 2-[bis(2,5-dimethylphenyl)-phosphinoyl]succinic acid]",7.7 ± 6.4,18.6,> 100,–
"CN(C)c1ccc(P(=O)(c2ccc(N(C)C)cc2)C(CC(=O)O)C(=O)O)cc1 (centres unmarked) [Compound 11, 2-[bis-(4-Dimethylaminophenyl)-phosphinoyl]succinic acid, reference compound]",117 ± 3.9,–,–,–
"CCCCN(CCCC)C(=O)CC(C(=O)N(CCCC)CCCC)P(=O)(c1ccc(N(C)C)cc1)c1ccc(N(C)C)cc1 (centres unmarked) [Compound 4, N^1,N^1,N^4,N^4-tetrabutyldiamide of 2-[bis(4-dimethylaminophenyl)-phosphinoyl]succinic acid]",0,7.9,> 100,–
"CCCCN(CCCC)C(=O)CC(C(=O)N(CCCC)CCCC)P(=O)(CCCC)CCCC (centres unmarked) [Compound 7, N^1,N^1,N^4,N^4-tetrabutyldiamide of 2-(di-n-butylphosphinoyl)succinic acid]",0,44.7,> 100,–
"CCN(CC)CC(C(=O)N(CC)CC)P(=O)(c1ccccc1)c1ccccc1 (centres unmarked) [Compound 18, N,N-Diethylamide of 2-(diphenylphosphinoyl)-3-(diethylamino)propionic acid, reference compound]",97.4,–,–,–
"Cc1ccc(C)c(P(=O)(c2cc(C)ccc2C)C(CC(=O)O)C(=O)O)c1 (centres unmarked) [Compound 12, 2-[bis-(2,5-Dimethylphenyl)-phosphinoyl]succinic acid, reference compound]",97.9 ± 11.4,–,–,–
